From patent US9764047B2, “Method for obtaining novel derivatives of naphthalene for the in vivo diagnosis of alzheimer's disease” (CENTRO DE NEUROCIENCIAS DE CUBA, priority 2009, dated 2017) come the findings set out here.

A short description of data set [1]: Determination of partition coefficients (n-octanol/water, radiotracer method). In kind it is physicochemical. An excerpt: Chemical compounds that cross the blood brain barrier (BBB) should be neutral and lipophilic and also, have a low molecular weight. The partition coefficient (P) provides a measure of the compound lipophilicity and is closely related to drug distribution in the body, its absorption in tissues and its route of excretion (Meade et al. in Curr. Opin. Neurobiol., 2003, 13, 5, 597-602). One method used to determine this parameter is that of radiotracers which relates the radiotracers activity or number of counts in the octanol organic phase with that of the aqueous phase. In this invention the compounds labeling is carried out using the Iodogeno method (^131I).
Determination of Partition Coefficients: A solution of 9 (20 μL), prepared as described in example 10, was added to a mixture of 3 ml of n-octanol and 3 ml of distilled water. After stirring and leaving to stand the mixture, aliquots of 20 μL from each phase were taken to determine the radiometric distribution ratio by an activity meter (CRC 35R, Capintec Inc.). This procedure was repeated to the radiopharmaceutical of ^99mTc-ECD as reference, which is used for cerebral perfusion studies.

Data set [2] can be described thus: Biodistribution in rats after intravenous injection (gamma camera imaging). In kind it is in vivo, male Wistar rats. As for the experimental part: The arrow indicates the detection of the compound in the region of interest (maximum uptake at about 3 min.).
Animal Studies: A solution of 9 15 MBq ([…]), prepared as described above, was administered to male Wistar rats (160 g, n=3) through the lateral tail vein. Then, images were taken every 15 seconds, for 30 min. (120 images) with a gamma camera (Medis Nucline TH22, Hungary), with a peak centered at 360 keV and a window of ±25%. The image processing was performed on a processing station Segami (USA).

Read-outs that look alike come from different tables or passages of the source.

Broadly, the melting point is the temperature, or range, at which the solid turns liquid. One may read the logP as the decadic logarithm of the partition coefficient of the neutral form, usually between octanol and water.

The compound `O=C(O)CCC(=O)Nc1cccc2ccccc12` [Compound 2, 4-(1-naphthylamino)-4-oxobutanoic acid] displayed a melting point of 167 to 169 °C.

“N1-(2-aminoethyl)-N4-(1-naphthyl) succinimide-^131I [Compound 9]”: the Partition coefficient in data set [1] (n-octanol/distilled water, radiometric distribution ratio) was determined as 0.54. Moreover, in data set [1] (octanol/water), the logP is −0.27. Moreover, the “time of maximum uptake in the region of interest” value in data set [2] (131I-labeled compound) is listed as “about 3 min”. Further, the “excretion of the radioiodinated compound” value in data set [2] (after maximum uptake) is “slow excretion”.

Consider `CCOC(=O)[C@H](C[S-])[N-]CCN[C@@H](C[S-])C(=O)OCC.[O-2].[Tc]` [^99mTc-ECD, ^99mTc-ethylcysteinate diethyl ester, reference compound], for which, in data set [1], the Partition coefficient was 40.6 and the logP is on record as 1.6.

Regarding `O=C(O)CCNC(=O)CCC(=O)Nc1cccc2ccccc12`, the melting point lay within 180.5 to 181.8 °C.
